Values joined by “and” are separate entries in the source; they are usually repeats but may differ in a detail not shown here. Equal values may be shown once. Read-outs that look alike come from different tables or passages of the source.
Experiments:
[1] = target: FGFR4 (Homo sapiens, UniProt P22455); test: biochemical; assay type: biochemical
[2] = system: NIH-3T3 cells; test: WST-1 cytotoxicity assay; assay type: cell-based, mouse; conditions: Mus musculus, NIH3T3, 48 h, read-out: NIH-3T3 Cells IC50
[3] = system: FGFR1; test: Z'-LYTE kinase enzyme inhibition assay, FGFR1; assay type: biochemical; conditions: for FGFR1-SI: selectivity index IC50/IC50, lowest IC50 of the compound = 1; for FGFR selectivity (in words): among FGFR1-4
[4] = target: FGFR1 (Homo sapiens, UniProt P11362); test: Z'-LYTE kinase enzyme inhibition assay, FGFR1; assay type: biochemical
[5] = system: FGFR3; test: biochemical; assay type: biochemical; conditions: for FGFR selectivity (in words): among FGFR1-4
[6] = target: FGFR3 (Homo sapiens, UniProt P22607); test: biochemical; assay type: biochemical
[7] = target: FGFR2 (Homo sapiens, UniProt P21802); test: biochemical; conditions: FGFR2-IC50
[8] = system: FGFR2; test: biochemical; conditions: for FGFR selectivity (in words): among FGFR1-4; for FGFR2-SI: selectivity index IC50/IC50, lowest IC50 of the compound = 1
[9] = selectivity index IC50/IC50, lowest IC50 of the compound = 1

FGFR4, sequence (P22455 22-802): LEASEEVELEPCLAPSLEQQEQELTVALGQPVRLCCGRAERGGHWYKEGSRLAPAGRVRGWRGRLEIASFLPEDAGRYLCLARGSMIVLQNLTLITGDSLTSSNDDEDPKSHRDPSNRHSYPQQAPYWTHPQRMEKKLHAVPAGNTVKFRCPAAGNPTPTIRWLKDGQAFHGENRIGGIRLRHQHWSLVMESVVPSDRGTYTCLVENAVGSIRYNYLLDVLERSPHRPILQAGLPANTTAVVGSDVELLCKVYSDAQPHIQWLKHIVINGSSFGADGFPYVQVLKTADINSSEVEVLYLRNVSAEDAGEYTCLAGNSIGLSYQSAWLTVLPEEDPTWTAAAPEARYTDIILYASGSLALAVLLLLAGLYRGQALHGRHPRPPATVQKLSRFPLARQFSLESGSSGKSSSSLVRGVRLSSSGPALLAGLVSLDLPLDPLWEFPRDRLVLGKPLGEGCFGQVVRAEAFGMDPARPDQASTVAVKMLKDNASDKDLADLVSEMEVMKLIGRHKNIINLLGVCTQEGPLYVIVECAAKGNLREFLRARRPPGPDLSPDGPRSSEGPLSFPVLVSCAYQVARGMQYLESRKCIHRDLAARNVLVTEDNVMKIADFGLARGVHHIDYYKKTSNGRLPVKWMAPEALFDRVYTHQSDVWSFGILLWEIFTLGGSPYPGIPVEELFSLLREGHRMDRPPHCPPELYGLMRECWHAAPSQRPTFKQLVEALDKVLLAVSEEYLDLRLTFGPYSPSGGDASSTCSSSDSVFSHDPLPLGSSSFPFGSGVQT
FGFR2 (Homo sapiens, UniProt P21802), sequence (P21802 22-821): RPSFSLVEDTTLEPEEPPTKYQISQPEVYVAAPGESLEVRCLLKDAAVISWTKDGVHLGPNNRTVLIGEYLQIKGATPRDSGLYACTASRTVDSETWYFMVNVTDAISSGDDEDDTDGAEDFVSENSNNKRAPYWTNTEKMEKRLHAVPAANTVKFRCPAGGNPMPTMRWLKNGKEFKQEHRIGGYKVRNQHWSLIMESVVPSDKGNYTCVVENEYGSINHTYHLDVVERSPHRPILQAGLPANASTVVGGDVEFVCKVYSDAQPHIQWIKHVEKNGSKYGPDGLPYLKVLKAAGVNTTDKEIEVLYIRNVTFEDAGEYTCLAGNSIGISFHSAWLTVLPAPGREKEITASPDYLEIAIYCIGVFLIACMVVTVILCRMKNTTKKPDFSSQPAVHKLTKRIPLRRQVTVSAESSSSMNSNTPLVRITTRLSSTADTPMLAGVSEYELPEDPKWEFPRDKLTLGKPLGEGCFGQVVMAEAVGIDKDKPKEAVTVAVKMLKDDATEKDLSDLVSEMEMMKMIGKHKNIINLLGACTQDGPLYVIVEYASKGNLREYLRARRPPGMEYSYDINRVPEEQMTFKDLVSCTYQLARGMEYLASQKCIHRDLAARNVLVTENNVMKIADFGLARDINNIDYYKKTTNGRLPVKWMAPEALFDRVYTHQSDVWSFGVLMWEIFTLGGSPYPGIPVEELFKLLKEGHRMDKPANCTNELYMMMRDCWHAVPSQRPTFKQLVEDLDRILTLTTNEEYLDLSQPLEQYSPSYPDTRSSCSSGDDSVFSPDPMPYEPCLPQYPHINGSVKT
FGFR3 (Homo sapiens, UniProt P22607), sequence (P22607 23-806): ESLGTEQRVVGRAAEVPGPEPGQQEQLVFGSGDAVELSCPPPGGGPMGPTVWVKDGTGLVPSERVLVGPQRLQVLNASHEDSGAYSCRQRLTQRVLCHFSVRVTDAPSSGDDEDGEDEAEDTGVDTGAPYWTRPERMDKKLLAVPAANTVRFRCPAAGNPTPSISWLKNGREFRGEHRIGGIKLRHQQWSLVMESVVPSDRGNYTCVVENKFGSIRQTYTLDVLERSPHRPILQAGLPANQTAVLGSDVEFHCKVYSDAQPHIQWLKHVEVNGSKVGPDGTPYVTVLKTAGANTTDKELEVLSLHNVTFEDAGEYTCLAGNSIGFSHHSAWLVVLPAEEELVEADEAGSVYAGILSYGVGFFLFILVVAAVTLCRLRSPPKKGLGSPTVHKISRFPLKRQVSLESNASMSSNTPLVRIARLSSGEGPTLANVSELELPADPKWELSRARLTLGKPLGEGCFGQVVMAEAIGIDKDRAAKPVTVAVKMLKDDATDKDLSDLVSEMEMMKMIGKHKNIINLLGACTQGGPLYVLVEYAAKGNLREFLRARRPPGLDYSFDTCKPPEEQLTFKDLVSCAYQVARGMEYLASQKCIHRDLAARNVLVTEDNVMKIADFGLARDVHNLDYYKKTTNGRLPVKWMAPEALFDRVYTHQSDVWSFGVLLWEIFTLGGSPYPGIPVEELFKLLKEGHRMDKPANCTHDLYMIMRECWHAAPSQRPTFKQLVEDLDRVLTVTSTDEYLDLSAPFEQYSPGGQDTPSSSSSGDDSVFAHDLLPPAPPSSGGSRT
FGFR1 (Homo sapiens, UniProt P11362), sequence (P11362 22-822): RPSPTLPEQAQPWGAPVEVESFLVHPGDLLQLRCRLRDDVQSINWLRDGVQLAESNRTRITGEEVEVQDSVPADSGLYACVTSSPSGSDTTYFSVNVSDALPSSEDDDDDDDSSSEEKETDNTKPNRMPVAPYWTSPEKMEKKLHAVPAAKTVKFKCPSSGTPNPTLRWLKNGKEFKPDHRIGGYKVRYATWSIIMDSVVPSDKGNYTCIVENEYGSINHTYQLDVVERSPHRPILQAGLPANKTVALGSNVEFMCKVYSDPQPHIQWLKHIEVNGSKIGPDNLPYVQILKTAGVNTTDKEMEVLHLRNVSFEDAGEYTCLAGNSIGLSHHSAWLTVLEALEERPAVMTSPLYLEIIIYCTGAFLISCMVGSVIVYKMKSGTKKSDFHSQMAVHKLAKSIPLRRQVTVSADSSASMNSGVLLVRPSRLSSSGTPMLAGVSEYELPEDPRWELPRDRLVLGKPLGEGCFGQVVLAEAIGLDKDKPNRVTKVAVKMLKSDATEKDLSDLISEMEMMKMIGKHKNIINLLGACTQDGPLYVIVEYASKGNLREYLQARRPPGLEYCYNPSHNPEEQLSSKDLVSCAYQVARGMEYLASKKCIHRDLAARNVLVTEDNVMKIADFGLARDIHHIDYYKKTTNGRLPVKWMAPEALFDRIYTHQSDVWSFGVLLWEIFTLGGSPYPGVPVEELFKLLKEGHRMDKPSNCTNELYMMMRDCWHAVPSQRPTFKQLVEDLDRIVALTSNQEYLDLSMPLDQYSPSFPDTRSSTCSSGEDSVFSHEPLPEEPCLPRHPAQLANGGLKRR

SMILES	FGFR4-SI [1]	IC50 [1]	FGFR1-SI [3]	IC50 ([4]; FGFR1-IC50)	IC50 ([6]; FGFR3-IC50)	IC50 ([1]; read-out: FGFR4-IC50)	IC50 ([4]; read-out: FGFR1-IC50)	IC50 ([6]; read-out: FGFR3-IC50)	FGFR selectivity (in words) [3]	IC50 [7]	better inhibitory potency against FGFR2 than FGFR4 ([1]; FGFR4 in compare to FGFR2)	better inhibitory potency against FGFR2 than FGFR1 ([3]; FGFR1 in compare to FGFR2)	IC50 [2]	FGFR selectivity (in words) [5]	FGFR3-SI [5, 9]	FGFR3-SI [5]	FGFR selectivity (in words) [8]	FGFR2-SI [8]	better inhibitory potency against FGFR2 than FGFR3 ([5]; FGFR3 in compare to FGFR2)
O=C1Nc2ccc(-c3ccc(C(=O)N4CCOCC4)cc3)cc2/C1=C\c1ccc(N2CCC(O)CC2)cc1 [Compound A9, (E)-3-[4-(4-hydroxypiperidin-1-yl)benzylidene]-5-[4-(morpholine-4-carbonyl)phenyl]indolin-2-one]	927.339	17.7 ± 0.329 µM	3.369	64.4 ± 1.23 nM	19.1 ± 3.22 nM	–	–	–	–	–	–	–	1140 ± 220 nM	for FGFR3	1	–	–	–	–
O=C1Nc2ccc(-c3ccc(C(=O)N4CCCCC4)cc3)cc2/C1=C\c1ccc(N2CCC(O)CC2)cc1 [Compound A10, (E)-3-[4-(4-hydroxypiperidin-1-yl)benzylidene]-5-[4-(piperidine-1-carbonyl)phenyl]indolin-2-one]	1343.587	23.2 ± 0.271 µM	20.006	344.7 ± 3.41 nM	17.2 ± 0.419 nM	–	–	–	–	–	–	–	983 ± 158 nM	for FGFR3	1	–	–	–	–
O=CN1CCN(c2ccc(/C=C3/C(=O)Nc4ccc(-c5ccc(-c6ccc(O)cc6)cc5)cc43)cc2)CC1 [Compound A26, (E)-4-{4-{[5-(4'-hydroxy-[1,1'-biphenyl]-4-yl)-2-oxoindolin-3-ylidene]methyl}phenyl}piperazine-1-carbaldehyde]	24.028	–	1	–	–	10.1 ± 0.322 µM	422 ± 40.3 nM	481 ± 24.1 nM	–	–	–	–	2500 ± 268 nM	–	–	1.14	–	–	–
CN1CCN(C(=O)c2ccc(-c3ccc4c(c3)/C(=C\c3ccc(N5CCC(O)CC5)cc3)C(=O)N4)cc2)CC1 [Compound A11, (E)-3-[4-(4-hydroxypiperidin-1-yl)benzylidene]-5-[4-(4-methylpiperazine-1-carbonyl)phenyl]indolin-2-one]	191.383	20.2 ± 0.259 µM	1.464	155 ± 6.18 nM	106 ± 2.8 nM	–	–	–	selectivity to FGFR1 and FGFR3	–	–	–	87800 ± 4290 nM	–	1	–	–	–	–
O=C1Nc2ccc(-c3ccc(C(=O)N4CCCCC4)cc3)cc2/C1=C\c1ccc(N2CCOCC2)cc1 [Compound A4, (E)-3-(4-morpholinobenzylidene)-5-[4-(piperidine-1-carbonyl)phenyl]indolin-2-one]	141.176	15.1 ± 0.313 µM	1	107 ± 3.84 nM	195 ± 5.61 nM	–	–	–	selectivity to FGFR1 and FGFR3	–	–	–	400 ± 100 nM	–	–	1.819	–	–	–
CN1CCN(C(=O)c2ccc(-c3ccc4c(c3)/C(=C\c3ccc(N5CCN(C)CC5)cc3)C(=O)N4)cc2)CC1 [Compound A17, (E)-3-[4-(4-methylpiperazin-1-yl)benzylidene]-5-[4-(4-methylpiperazine-1-carbonyl)phenyl]indolin-2-one]	542.643	7.23 ± 0.288 µM	61.547	819.8 ± 3.63 nM	13.3 ± 2.93 nM	–	–	–	–	–	–	–	4700 ± 105 nM	for FGFR3	1	–	–	–	–
CN1CCN(c2ccc(/C=C3/C(=O)Nc4ccc(-c5ccc(C(=O)N6CCOCC6)cc5)cc43)cc2)CC1 [Compound A15, (E)-3-[4-(4-methylpiperazin-1-yl)benzylidene]-5-[4-(morpholine-4-carbonyl)phenyl]indolin-2-one]	382.588	14.8 ± 0.449 µM	1	38.7 ± 0.504 nM	38.8 ± 1.35 nM	–	–	–	selectivity to FGFR1 and FGFR3	–	–	–	9500 ± 260 nM	–	1.003	–	–	–	–
CN1CCN(c2ccc(/C=C3/C(=O)Nc4ccc(-c5ccc(C(=O)N6CCCCC6)cc5)cc43)cc2)CC1 [Compound A16, (E)-3-[4-(4-methylpiperazin-1-yl)benzylidene]-5-[4-(piperidine-1-carbonyl)phenyl]indolin-2-one]	1054.660	15.05 ± 0.0641 µM	17.919	256 ± 28.1 nM	14.3 nM and 14.2 nM	–	–	–	–	–	–	–	626 ± 140 nM	for FGFR3	1	–	–	–	–
O=C1Nc2ccc(-c3ccc(-c4ccc(O)cc4)cc3)cc2/C1=C\c1ccc(N2CCOCC2)cc1 [Compound A2, (E)-5-(4'-hydroxy-[1,1'-biphenyl]-4-yl)-3-(4-morpholinobenzylidene)indolin-2-one]	2514.228	21.2 ± 0.351 µM	25.948	219 ± 4.32 nM	3460 ± 510 nM	–	–	–	–	8.44 ± 0.237 nM	–	–	949 ± 24.7 nM	–	–	409.791	for FGFR2	1	–
O=C1Nc2ccc(-c3ccc4cc(O)ccc4c3)cc2/C1=C\c1ccc(N2CCOCC2)cc1 [Compound A1, (E)-5-(6-hydroxynaphthalen-2-yl)-3-(4-morpholinobenzylidene)indolin-2-one]	6247.898	37.1 ± 0.965 µM	3.333	19.8 ± 3.32 nM	1420 ± 423 nM	–	–	–	–	5.95 nM	6247.9 fold	3.3 fold	1580 ± 171 nM	–	–	238.648	for FGFR2	1	238.6 fold
CN1CCN(c2ccc(/C=C3/C(=O)Nc4ccc(-c5ccc(C(=O)N6CCCC6)cc5)cc43)cc2)CC1 [Compound A18, (E)-3-[4-(4-methylpiperazin-1-yl)benzylidene]-5-[4-(pyrrolidine-1-carbonyl)phenyl]indolin-2-one]	295.505	14.5 ± 0.211 µM	1	49.2 ± 2.52 nM	156 ± 31.3 nM	–	–	–	selectivity to FGFR1	–	–	–	2540 ± 146 nM	–	–	3.167	–	–	–

Further lines, with some results ahead:

FGFR4-SI [1]	IC50 [1]	FGFR1-SI [3]	IC50 ([4]; FGFR1-IC50)	IC50 ([6]; FGFR3-IC50)	IC50 ([1]; read-out: FGFR4-IC50)	IC50 ([4]; read-out: FGFR1-IC50)	IC50 ([6]; read-out: FGFR3-IC50)	FGFR selectivity (in words) [3]	IC50 [7]	better inhibitory potency against FGFR2 than FGFR4 ([1]; FGFR4 in compare to FGFR2)	better inhibitory potency against FGFR2 than FGFR1 ([3]; FGFR1 in compare to FGFR2)	SMILES	IC50 [2]	FGFR selectivity (in words) [5]	FGFR3-SI [5, 9]	FGFR3-SI [5]	FGFR selectivity (in words) [8]	FGFR2-SI [8]	better inhibitory potency against FGFR2 than FGFR3 ([5]; FGFR3 in compare to FGFR2)
217.749	4.89 ± 0.402 µM	28.719	646 ± 10.9 nM	22.5 ± 0.737 nM	–	–	–	–	–	–	–	O=C1Nc2ccc(-c3ccc(C(=O)N4CCCC4)cc3)cc2/C1=C\c1ccc(N2CCC(O)CC2)cc1 [Compound A12, (E)-3-[4-(4-hydroxypiperidin-1-yl)benzylidene]-5-[4-(pyrrolidine-1-carbonyl)phenyl]indolin-2-one]	4960 ± 187 nM	for FGFR3	1	–	–	–	–
94.136	6.32 ± 0.322 µM	1	67.2 ± 2.92 nM	193 ± 39.3 nM	–	–	–	–	–	–	–	O=CN1CCN(c2ccc(/C=C3/C(=O)Nc4ccc(-c5ccc(C(=O)N6CCCC6)cc5)cc43)cc2)CC1 [Compound A30, (E)-4-{4-{ {2-oxo-5-[4-(pyrrolidine-1-carbonyl)phenyl]indolin-3-ylidene}methyl}phenyl}piperazine-1-carbaldehyde]	1590 ± 224 nM	–	–	2.880	–	–	–
209.223	7.03 ± 0.243 µM	2.299	77.3 ± 3.14 nM	33.6 ± 0.574 nM	–	–	–	–	–	–	–	O=CN1CCN(c2ccc(/C=C3/C(=O)Nc4ccc(-c5ccc(C(=O)N6CCCCC6)cc5)cc43)cc2)CC1 [Compound A28, (E)-4-{4-{ {2-oxo-5-[4-(piperidine-1-carbonyl)phenyl]indolin-3-ylidene}methyl}phenyl}piperazine-1-carbaldehyde]	839 ± 232 nM	–	1	–	–	–	–
16.785	0.823 ± 0.108 µM	1	49 ± 0.688 nM	1090 ± 47.3 nM	–	–	–	selectivity to FGFR1	–	–	–	O=C1Nc2ccc(-c3ccc(C(=O)N4CCCC4)cc3)cc2/C1=C\c1ccc(N2CCOCC2)cc1 [Compound A6, (E)-3-(4-morpholinobenzylidene)-5-[4-(pyrrolidine-1-carbonyl)phenyl]indolin-2-one]	818 ± 241 nM	–	–	22.297	–	–	–
5.641	6.13 ± 0.208 µM	3.658	3976 ± 0.354 nM	1090 ± 477 nM	–	–	–	–	–	–	–	O=CN1CCN(c2ccc(/C=C3/C(=O)Nc4ccc(-c5ccc6cc(O)ccc6c5)cc43)cc2)CC1 [Compound A25, (E)-4-{4-{[5-(6-hydroxynaphthalen-2-yl)-2-oxoindolin-3-ylidene]methyl}phenyl}piperazine-1-carbaldehyde]	24500 ± 306 nM	–	1	–	–	–	–
69.878	3.67 ± 0.29 µM	13.054	686 ± 27.7 nM	52.5 ± 4.7 nM	–	–	–	–	–	–	–	O=C1Nc2ccc(-c3ccc(C(=O)N4CCOCC4)cc3)cc2/C1=C\c1ccc(N2CCOCC2)cc1 [Compound A3, (E)-5-[4-(morpholin-4-carbonyl)phenyl]-3-(4-morpholinobenzylidene)indolin-2-one]	3260 ± 121 nM	for FGFR3	1	–	–	–	–
32.626	6.1 ± 0.347 µM	48.818	9130 ± 1760 nM	187 ± 4.12 nM	–	–	–	–	–	–	–	CN1CCN(C(=O)c2ccc(-c3ccc4c(c3)/C(=C\c3ccc(N5CCN(C=O)CC5)cc3)C(=O)N4)cc2)CC1 [Compound A29, (E)-4-{4-{ {5-[4-(4-methylpiperazine-1-carbonyl)phenyl]-2-oxoindolin-3-ylidene}methyl}phenyl}piperazine-1-carbaldehyde]	10100 ± 251 nM	–	1	–	–	–	–

Source: article PMC6978637 (Saudi Pharmaceutical Journal : SPJ, 2019)
